The values below come from patent US7858620B2, “Cyanoisoquinoline” (H. Lundbeck A/S, priority 2007, dated 2010).

The term IC50 denotes the concentration that gives 50% inhibition. A higher IC50 goes with a need for much substance.

The target in the experiment is T1, PDE10A enzyme (Homo sapiens, UniProt Q9Y233).
T1 construct: made in house; host or cells: E. coli BL21(DE3)
T1 sequence (Q9Y233 716-1055): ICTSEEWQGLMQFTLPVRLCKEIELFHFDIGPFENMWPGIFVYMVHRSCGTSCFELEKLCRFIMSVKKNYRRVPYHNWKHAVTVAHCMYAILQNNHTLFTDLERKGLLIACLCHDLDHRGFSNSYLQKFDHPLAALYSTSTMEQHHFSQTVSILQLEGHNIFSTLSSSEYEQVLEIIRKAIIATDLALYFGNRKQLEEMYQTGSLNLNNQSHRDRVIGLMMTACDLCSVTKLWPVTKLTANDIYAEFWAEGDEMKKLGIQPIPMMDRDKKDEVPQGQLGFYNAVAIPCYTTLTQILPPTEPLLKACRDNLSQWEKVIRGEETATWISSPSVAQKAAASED
In words: PDE10A inhibition assay, SPA. Conditions: column head 2,1334003; unit inferred, nM. Format: biochemical. Here is the method: Active PDE10A enzyme is prepared in a number of ways for use in PDE assays (Loughney, K. et al. Gene 1999, 234, 109-117; Fujishige, K. et al. Eur J Biochem. 1999, 266, 1118-1127 and Soderling, S. et al. Proc. Natl. Acad. Sci. 1999, 96, 7071-7076). PDE10A can be expressed as full-length proteins or as truncated proteins, as long as they express the catalytic domain. PDE10A can be prepared in different cell types, for example insect cells or E. coli. An example of a method to obtain catalytically active PDE10A is as follows: The catalytic domain of human PDE10A (amino acids 440-779 from the sequence with accession number NP 006652) is amplified from total human brain total RNA by standard RT-PCR and is cloned into the BamH1 and Xho1 sites of the pET28a vector (Novagen). Expression in coli is performed according to standard protocols. Briefly, the expression plasmids are transformed into the BL21(DE3) E. coli strain, and 50 mL cultures inoculated with the cells allowed to grow to an OD600 of 0.4-0.6 before protein expression is induced with 0.5 mM IPTG. Following induction, the cells are incubated overnight at room temperature, after which the cells are collected by centrifugation. Cells expressing PDE10A are resuspended in 12 mL (50 mM TRIS-HCl-pH8.0, 1 mM MgCl2 and protease inhibitors). The cells are lysed by sonication, and after all cells are lysed, TritonX100 is added according to Novagen protocols.
PDE10A and Pde3A assays can for example be performed as follows: PDE10A and Pde3A assays are performed in 60 uL samples containing a fixed amount of the relevant PDE enzyme (sufficient to convert 20-25% of the cyclic nucleotide substrate), a buffer (50 mM HEPES7.6; 10 mM MgCl2; 0.02% Tween20), 0.1 mg/ml BSA, 225 pCi of ^3H-labelled cyclic nucleotide substrate, tritium labeled cAMP to a final concentration of 5 nM and varying amounts of inhibitors. Reactions are initiated by addition of the cyclic nucleotide substrate, and reactions are allowed to proceed for one hr at room temperature before being terminated through mixing with 15 uL 8 mg/mL yttrium silicate SPA beads (Amersham). The beads are allowed to settle for one hr in the dark before the plates are counted in a Wallac 1450 Microbeta counter. The measured signal can be converted to activity relative to an uninhibited control (100%) and IC50 values can be calculated using the Xlfit extension to EXCEL.
`COc1cc2c(N3CCNC(c4ccc5ccccc5c4)C3)nc(C)c(C#N)c2cc1OC` (stereo not shown) [Compound 33, 6,7-Dimethoxy-3-methyl-1-(3-naphthalen-2-yl-piperazin-1-yl)-isoquinoline-4-carbonitrile] came in with an IC50 of 2100 nM. For `COc1cc2c(N3CCNC(c4cccc5ccccc45)C3)nc(C)c(C#N)c2cc1OC` (stereo not shown) [Compound 34, 6,7-Dimethoxy-3-methyl-1-(3-naphthalen-1-yl-piperazin-1-yl)-isoquinoline-4-carbonitrile] the value was 880 nM.

For `COc1cc(OC)cc(C2CN(c3nc(C)c(C#N)c4cc(OC)c(OC)cc34)CCN2)c1` (stereo not shown) [Compound 35, 1-[3-(3,5-Dimethoxy-phenyl)-piperazin-1-yl]-6,7-dimethoxy-3-methyl-isoquinoline-4-carbonitrile], the IC50 turned out to be 710 nM. With `COc1ccc(OC)c(C2CN(c3nc(C)c(C#N)c4cc(OC)c(OC)cc34)CCN2)c1` (stereo not shown) [Compound 36, 1-[3-(2,5-Dimethoxy-phenyl)-piperazin-1-yl]-6,7-dimethoxy-3-methyl-isoquinoline-4-carbonitrile] the figure was 960 nM; with `COc1cc2c(N3CCNC(c4ccc(Br)cc4)C3)nc(C)c(C#N)c2cc1OC` (stereo not shown) [Compound 37, 1-[3-(4-Bromo-phenyl)-piperazin-1-yl]-6,7-dimethoxy-3-methyl-isoquinoline-4-carbonitrile], 2600 nM; with `COc1ccc2cc(C3CN(c4nc(C)c(C#N)c5cc(OC)c(OC)cc45)CCN3)ccc2c1` (stereo not shown) [Compound 38, 6,7-Dimethoxy-1-[3-(6-methoxy-naphthalen-2-yl)-piperazin-1-yl]-3-methyl-isoquinoline-4-carbonitrile], 980 nM. Regarding `COc1ccc(C2CN(c3nc(C)c(C#N)c4cc(OC)c(OC)cc34)CCO2)cc1` (stereo not shown) [Compound 39, 6,7-Dimethoxy-1-[2-(4-methoxy-phenyl)-morpholin-4-yl]-3-methyl-isoquinoline-4-carbonitrile], 930 nM corresponded to half-maximal inhibition (IC50). For the compound `COc1cc2c(N3CCN[C@H](c4ccccc4)C3)nc(C)c(C#N)c2cc1OC` [Compound 40], half-maximal inhibition (IC50) was put at 520 nM. `COc1cc2c(N3CCNC(c4ccc(F)cc4)C3)nc(C)c(C#N)c2cc1OC` (stereo not shown) [Compound 41, 1-[3-(4-Fluoro-phenyl)-piperazin-1-yl]-6,7-dimethoxy-3-methyl-isoquinoline-4-carbonitrile]: the IC50 amounted to 1200 nM. With `COc1cc2c(N3CCNC(c4ccccc4OC)C3)nc(C)c(C#N)c2cc1OC` (stereo not shown) [Compound 42, 6,7-Dimethoxy-1-[3-(2-methoxy-phenyl)-piperazin-1-yl]-3-methyl-isoquinoline-4-carbonitrile] the figure was 1400 nM; with `COc1cc2c(N3CCNC(c4ccc5c(c4)OCO5)C3)nc(C)c(C#N)c2cc1OC` (stereo not shown) [Compound 43, 1-(3-Benzo[1,3]dioxol-5-yl-piperazin-1-yl)-6,7-dimethoxy-3-methyl-isoquinoline-4-carbonitrile], 510 nM; with `COc1cc2c(C#N)cnc(N3CCN[C@@H](c4ccccc4)C3)c2cc1OC` [Compound 44, 6,7-Dimethoxy-1-((S)-3-phenyl-piperazin-1-yl)-isoquinoline-4-carbonitrile], 410 nM. With `COc1cc2c(C#N)cnc(N3CCN(C)C(c4ccc(C)cc4)C3)c2cc1OC` (stereo not shown) [Compound 45, 6,7-Dimethoxy-1-(4-methyl-3-p-tolyl-piperazin-1-yl)-isoquinoline-4-carbonitrile] the figure was 350 nM; with `CCc1ccc(C2CN(c3ncc(C#N)c4cc(OC)c(OC)cc34)CCN2)cc1` (stereo not shown) [Compound 46, 1-[3-(4-Ethyl-phenyl)-piperazin-1-yl]-6,7-dimethoxy-isoquinoline-4-carbonitrile], 1300 nM. For `COc1cc2c(N3CCNC(c4ccc(N(C)C)cc4)C3)nc(C)c(C#N)c2cc1OC` (stereo not shown) [Compound 47, 1-[3-(4-Dimethylamino-phenyl)-piperazin-1-yl]-6,7-dimethoxy-3-methyl-isoquinoline-4-carbonitrile] the value was 1200 nM; for `COc1cc2c(N3CCNC(c4cc(OC)c(OC)c(OC)c4)C3)nc(C)c(C#N)c2cc1OC` (stereo not shown) [Compound 48, 6,7-Dimethoxy-3-methyl-1-[3-(3,4,5-trimethoxy-phenyl)-piperazin-1-yl]-isoquinoline-4-carbonitrile], 1500 nM.

Compound `COc1cc2c(N3CCN[C@@H](c4ccccc4)C3)nc(C)c(C#N)c2cc1OC` [Compound 49, 6,7-Dimethoxy-3-methyl-1-((S)-3-phenyl-piperazin-1-yl)-isoquinoline-4-carbonitrile] yielded an IC50 of 460 nM. For `COc1cc2c(N3CCNC(c4cccc([N+](=O)[O-])c4)C3)nc(C)c(C#N)c2cc1OC` (stereo not shown) [Compound 50, 6,7-Dimethoxy-3-methyl-1-[3-(3-nitro-phenyl)-piperazin-1-yl]-isoquinoline-4-carbonitrile] the value was 1100 nM; for `COc1cc2c(N3CCNC(c4ccc(N5CCOCC5)cc4)C3)nc(C)c(C#N)c2cc1OC` (stereo not shown) [Compound 51, 6,7-Dimethoxy-3-methyl-1-[3-(4-morpholin-4-yl-phenyl)-piperazin-1-yl]-isoquinoline-4-carbonitrile], 1500 nM; for `COc1cc2c(C#N)cnc(N3CCN[C@H](c4ccccc4)C3)c2cc1OC` [Compound 52, 6,7-Dimethoxy-1-(®-3-phenyl-piperazin-1-yl)-isoquinoline-4-carbonitrile], 210 nM.

Regarding `COc1ccc(C2CN(c3ncc(C#N)c4cc(OC)c(OC)cc34)CCN2)c(C)c1` (stereo not shown) [Compound 53, 6,7-Dimethoxy-1-[3-(4-methoxy-2-methyl-phenyl)-piperazin-1-yl]-isoquinoline-4-carbonitrile], it took 500 nM to reach half-maximal inhibition (IC50). For `COc1ccc(C2CN(c3ncc(C#N)c4cc(OC)c(OC)cc34)CCN2)cc1F` (stereo not shown) [Compound 54, 1-[3-(3-Fluoro-4-methoxy-phenyl)-piperazin-1-yl]-6,7-dimethoxy-isoquinoline-4-carbonitrile] the value was 36 nM; for `CCOc1ccc(C2CN(c3ncc(C#N)c4cc(OC)c(OC)cc34)CCN2)cc1` (stereo not shown) [Compound 55, 1-[3-(4-Ethoxy-phenyl)-piperazin-1-yl]-6,7-dimethoxy-isoquinoline-4-carbonitrile], 200 nM; for `COc1ccc(C2CN(c3ncc(C#N)c4cc(OC)c(OC)cc34)CCN2)cc1Cl` (stereo not shown) [Compound 56, 1-[3-(3-Chloro-4-methoxy-phenyl)-piperazin-1-yl]-6,7-dimethoxy-isoquinoline-4-carbonitrile], 81 nM.

In the case of `COc1cc2c(C#N)cnc(N3CCNC(c4ccc(OC(C)C)cc4)C3)c2cc1OC` (stereo not shown) [Compound 57, 1-[3-(4-Isopropoxy-phenyl)-piperazin-1-yl]-6,7-dimethoxy-isoquinoline-4-carbonitrile], the IC50 was 530 nM. `COc1ccc(C2CN(c3ncc(C#N)c4cc(OC)c(OC)cc34)CCN2)c(OC)c1` (stereo not shown) [Compound 58, 1-[3-(2,4-Dimethoxy-phenyl)-piperazin-1-yl]-6,7-dimethoxy-isoquinoline-4-carbonitrile] yielded an IC50 of 850 nM. For `CCOc1ccc(C2CN(c3ncc(C#N)c4cc(OC)c(OC)cc34)CCN2)cc1C` (stereo not shown) [Compound 59, 1-[3-(4-Ethoxy-3-methyl-phenyl)-piperazin-1-yl]-6,7-dimethoxy-isoquinoline-4-carbonitrile] the value was 650 nM; for `COc1cc2c(C#N)cnc(N3CCNC(c4ccc(OC(F)(F)F)cc4)C3)c2cc1OC` (stereo not shown) [Compound 60, 6,7-Dimethoxy-1-[3-(4-trifluoromethoxy-phenyl)-piperazin-1-yl]-isoquinoline-4-carbonitrile], 2300 nM; for `COc1ccc([C@@H]2CN(c3ncc(C#N)c4cc(OC)c(OC)cc34)CCN2)cc1` [Compound 61, 6,7-Dimethoxy-1-[(R)-3-(4-methoxy-phenyl)-piperazin-1-yl]-isoquinoline-4-carbonitrile], 1200 nM. Turning to `COc1ccc([C@H]2CN(c3ncc(C#N)c4cc(OC)c(OC)cc34)CCN2)cc1` [Compound 62, 6,7-Dimethoxy-1-[(S)-3-(4-methoxy-phenyl)-piperazin-1-yl]-isoquinoline-4-carbonitrile], the IC50 stood at 47 nM.

`COc1cc2c(C#N)cnc(N3CCNC(c4ccc(OC(C)C)c(C)c4)C3)c2cc1OC` (stereo not shown) [Compound 63, 1-[3-(4-Isopropoxy-3-methyl-phenyl)-piperazin-1-yl]-6,7-dimethoxy-isoquinoline-4-carbonitrile] yielded an IC50 of 870 nM.
